How the values were obtained:
[1] = molecular target: T1, human CaSR (Homo sapiens, UniProt P41180); assay: In vitro CaSR conformational (allosteric) activation, intracellular Ca2+ change in hCaSR-CHO cells (Fluo-4 NW, FLIPR); assay type: cell-based; conditions: change in intracellular Ca2+ fluorescence intensity
T1 construct: expressed in transfected cells
T1 sequence (P41180 20-1078): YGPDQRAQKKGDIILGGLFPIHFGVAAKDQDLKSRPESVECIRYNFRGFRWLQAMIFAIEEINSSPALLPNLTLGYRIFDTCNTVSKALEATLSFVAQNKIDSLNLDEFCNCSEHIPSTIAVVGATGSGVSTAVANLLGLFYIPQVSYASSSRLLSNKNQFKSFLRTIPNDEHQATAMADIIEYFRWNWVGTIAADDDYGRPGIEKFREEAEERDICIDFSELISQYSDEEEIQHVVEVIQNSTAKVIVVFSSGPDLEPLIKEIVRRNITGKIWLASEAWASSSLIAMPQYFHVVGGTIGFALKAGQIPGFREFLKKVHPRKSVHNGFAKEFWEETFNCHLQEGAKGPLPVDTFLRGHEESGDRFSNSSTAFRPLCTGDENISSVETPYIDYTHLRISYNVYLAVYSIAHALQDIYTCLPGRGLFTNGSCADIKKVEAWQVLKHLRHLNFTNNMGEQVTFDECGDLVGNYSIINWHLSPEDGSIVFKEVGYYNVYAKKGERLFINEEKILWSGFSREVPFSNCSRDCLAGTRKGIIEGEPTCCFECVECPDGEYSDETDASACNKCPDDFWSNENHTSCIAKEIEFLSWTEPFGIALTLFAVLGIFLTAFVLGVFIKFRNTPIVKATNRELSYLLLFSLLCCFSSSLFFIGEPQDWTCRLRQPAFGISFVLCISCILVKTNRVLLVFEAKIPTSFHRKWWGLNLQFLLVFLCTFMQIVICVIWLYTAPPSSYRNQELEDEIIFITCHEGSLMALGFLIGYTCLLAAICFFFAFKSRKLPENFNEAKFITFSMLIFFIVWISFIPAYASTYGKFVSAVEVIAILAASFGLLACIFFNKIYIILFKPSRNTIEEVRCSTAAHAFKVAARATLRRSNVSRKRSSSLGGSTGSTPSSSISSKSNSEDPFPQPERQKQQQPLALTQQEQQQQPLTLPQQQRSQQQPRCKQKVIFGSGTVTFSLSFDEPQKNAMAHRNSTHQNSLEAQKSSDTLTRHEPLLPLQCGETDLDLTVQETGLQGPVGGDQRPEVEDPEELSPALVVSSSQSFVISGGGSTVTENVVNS
Procedure: The CaSR is a member of family C of G protein-coupled receptors (GPCR). Upon activation by extracellular Ca^2+ or specific compounds, CaSR triggers an increase in intracellular Ca^2+ concentration. To evaluate the effect of compounds on the allosteric activation of CaSR, a CHO cell line stably transfected with human CaSR (hCaSR-CHO) was utilized. Changes in intracellular Ca^2+ concentration were measured as a key indicator to assess the conformational activation of CaSR.
• 1. Preparation Before Plate Spreading: Twelve hours prior to cell spreading, a 384-well cell culture plate was coated with 0.1 mg/mL polylysine. • 2. Cell Spreading: Digested hCaSR-CHO cells were resuspended in complete medium, counted using a cell counter, and adjusted to a density of 5 × 10^5 cells/mL. A volume of 25 µL of cell suspension was inoculated into each well. After inoculation, the cells were incubated at 37 °C in a 5% CO2 incubator for 18 h. • 3. Preparation of Compound Test Solution: The test compounds were diluted to the required concentrations (10 µM, 2 µM, 400 nM, 80 nM, 16 nM, 3.2 nM, and 0.64 nM) and added to a 384-well spiked plate. Since the cell culture plate already contained 25 µL of Fluo-4 NW assay reagent and the instrument was set to deliver 20 µL of the system, the compound concentrations in the spiked plate were 2.25 times the actual assay concentrations. For example, […]. • 4. Preparation of Assay Reagents: According to the instructions of the Fluo-4 NW Calcium Assay Kit (Thermo, F36206), 1 mL of assay buffer was added to Component B to prepare a 250 mM probenecid solution. 100 µL of the probenecid solution was added to 10 mL of assay buffer and mixed thoroughly. Component A was added to the mixture to prepare a 1X dye loading solution. • 5. Fluorescent Dye Addition: The complete culture medium was discarded, and 25 µL of the 1X dye loading solution was added to the 384-well plate using a Multidrop automatic dispenser. The plate was incubated at 37 °C for 30 min in the dark, then transferred to room temperature for an additional 30 min. The plate was transferred to the FLIPER Tetra instrument (Molecular Devices). • 6. Data Acquisition: After adding 20 µL of the compound test solution, the excitation wavelength was set to 470-495 nm, and the emission was detected at 515-575 nm. The instrument's quality control board was used to ensure no errors before initiating detection. The detection duration was 660 seconds, and the raw data were exported at the end of the reading. • 7. Data Processing: The change in fluorescence intensity, representing intracellular calcium signals, was calculated by subtracting the minimum fluorescence value (average of 14-21 seconds) from the maximum fluorescence value (average of 40-80 seconds) after compound addition. Using GraphPad Prism 8.0, the EC50 values of individual compounds were determined by plotting the compound concentration on the x-axis and the change in fluorescence intensity on the y-axis.

[2] = Pharmacokinetic study in SD rats; assay type: in vivo; conditions: Sprague-Dawley, rat, plasma, male SD rats, single dose via oral gavage; for bioavailability: relative to Evocalcet (100)
Procedure: Animal Information: Male Sprague-Dawley (SD) rats, aged 7-8 weeks, were used. Each group consisted of 3-5 rats.
Dosing Information: The rats were fasted for more than 12 hours prior to administration. A single dose was administered via oral gavage.
Blood Sampling Time Points: Blood samples were collected from the tail vein before administration and at 0.25, 0.5, 1, 2, 4, 6, 8, and 24 hours post-administration. A volume of 100 µL of blood was collected at each time point.
Sample Processing and Storage: The blood samples were transferred into 1.5 mL microcentrifuge tubes, with 50 µL per tube (two tubes per sample). Centrifugation was completed within 2 hours. Whole blood samples were kept on ice prior to centrifugation. Centrifugation was performed at 4000 rpm, 2-8°C, for 10 minutes. After collecting the supernatant, it was stored at -80°C or below if not analyzed immediately.
Column: An InfinityLab Poroshell 120 SB-C18 column (2.1 × 100 mm, 2.7 µm) was used. Column Temperature: The temperature was maintained at 30°C. Flow Rate: The flow rate was set at 0.3 mL/min. Run Time: The total run time was 9.5 minutes. Post-run Time: A post-run time of 2 minutes was applied. Injection Volume: An injection volume of 2 µL was used. Mobile Phase: A mixture of methanol and 0.1% formic acid was employed as the mobile phase. Gradient Elution: Gradient elution was performed according to the table below.
Blood Sample Processing: 50 µL of plasma sample was aliquoted, and 25 µL of internal standard solution was added. The mixture was vortexed for 30 seconds. Then, 175 µL of methanol was added to precipitate proteins, and the mixture was vortexed again. The samples were centrifuged at 12,000 rpm for 10 minutes. Subsequently, 100 µL of the supernatant was collected and mixed with 300 µL of water. The final supernatant was injected for analysis.

[3] = system: parathyroid hormone (PTH); assay: In vivo inhibition of blood PTH concentration in five-sixths nephrectomy hyperparathyroidism model rats (ELISA); conditions: PTH reduction at 1 hour post-administration compared with baseline PTH concentration at 0 hour; single dose by oral gavage; male SD rats, five-sixths nephrectomy plus special diet
Source text: Male SD rat models of hyperparathyroidism were constructed by five-sixths nephrectomy plus a special diet. Blood parathyroid hormone (PTH) level was used as the endpoint. ELISA was applied to determine the changes in plasma PTH concentration following compound treatment, thereby assessing the in vivo activity of the compound.
• 1. Model Construction: Specific pathogen-free (SPF)-grade male SD rats aged 7-8 weeks were used. The rats were acclimatized with normal feed for 1 week. Two-thirds of the left kidney was removed, and the rats were allowed to recover with normal feed for 1 week. Subsequently, the right kidney was removed, and the rats were allowed to recover with normal feed for an additional week. The rats were then fed a special diet (0.5% calcium and 1.2% total phosphorus) for 2 weeks. • 2. Detection and Grouping: Approximately 300 µL of blood was collected from the tail vein into a coagulation-promoting tube, left at room temperature for 30 minutes, and centrifuged at 12,000 rpm for 3 minutes to obtain serum samples. The concentration of intact PTH (1-84) in the serum was detected using the MicroVue Intact PTH EIA-96 Test (Quidel, catalog No. 60-2500). The rats were grouped based on their PTH concentration levels, ensuring that the mean PTH concentration in each group was approximately the same. • 3. Administration and Activity Testing: A single dose of the compound was administered by oral gavage. Blood samples were collected before and after administration, and serum was obtained using the method described in step 2. PTH levels were measured using ELISA.

[4] = Rat liver microsome stability test; assay type: in vitro ADME; conditions: rat liver microsomes, PBS pH 7.4, 37 °C, maximum incubation time 60 minutes
Procedure: Rat liver microsomes at a defined concentration, testosterone (positive control), tolbutamide (internal standard), the test compounds, and PBS (pH 7.4) were incubated at 37 °C. The reaction was quenched with methanol at 0, 5, 10, 20, 30, and 60 min, respectively. The samples were pretreated and analyzed using LC-MS. Data processing involved plotting the ratio of the peak area of the test compound to that of the internal standard (y-axis) against time (x-axis). The half-life (t1/2) was calculated from the data. Table 3. Stability data of compounds in rat liver microsomes.

## C[C@@H](N[C@H]1CCN(c2ccc(CC(=O)O)c(F)c2)C1)c1cccc2ccccc12 [Compound 1, 2-(2-fluoro-4-((S)-3-(((R)-1-(naphthalen-1-yl)ethyl)amino)pyrrolidin-1-yl)phenyl)acetic acid]
[1]
  EC50: 39.7 nM

## C[C@@H](N[C@H]1CCN(c2ccc(CC(=O)O)cc2F)C1)c1cccc2ccccc12 [Compound 2, 2-(3-fluoro-4-((S)-3-(((R)-1-(naphthalen-1-yl)ethyl)amino)pyrrolidin-1-yl)phenyl)acetic acid]
[2]
  bioavailability: 136%
  AUC(0-inf): 34700 ± 2710 ng·h/mL
  Cmax: 3550 ± 283 ng/mL
  Tmax: 39 ± 20.4 min
  half-life: 355 ± 12.6 min
[1]
  EC50: 27.1 nM
[3]
  The reduction efficiency (%): 91%
[4]
  half-life: > 60 min

## Cc1cc(CC(=O)O)ccc1N1CC[C@H](N[C@H](C)c2cccc3ccccc23)C1 [Compound 3, 2-(3-methyl-4-((S)-3-(((R)-1-(naphthalen-1-yl)ethyl)amino)pyrrolidin-1-yl)phenyl)acetic acid]
[2]
  bioavailability: 144%
  AUC(0-inf): 36600 ± 1970 ng·h/mL
  Cmax: 3770 ± 584 ng/mL
  Tmax: 33 ± 16.2 min
  half-life: 310 ± 22.8 min
[1]
  EC50: 20.7 nM
[3]
  The reduction efficiency (%): 93%
[4]
  half-life: > 60 min

## Cc1cc(N2CC[C@H](N[C@H](C)c3cccc4ccccc34)C2)ccc1CC(=O)O [Compound 4, 2-(2-methyl-4-((S)-3-(((R)-1-(naphthalen-1-yl)ethyl)amino)pyrrolidin-1-yl)phenyl)acetic acid]
[1]
  EC50: 52 nM

## C[C@@H](N[C@H]1CCN(c2cc(F)c(CC(=O)O)c(F)c2)C1)c1cccc2ccccc12 [Compound 5, 2-(2,6-difluoro-4-((S)-3-(((R)-1-(naphthalen-1-yl)ethyl)amino)pyrrolidin-1-yl)phenyl)acetic acid]
[1]
  EC50: 39.8 nM
[3]
  The reduction efficiency (%): 81%
[4]
  half-life: > 60 min

## COc1cc(CC(=O)O)ccc1N1CC[C@H](N[C@H](C)c2cccc3ccccc23)C1 [Compound 6, 2-(3-methoxy-4-((S)-3-(((R)-1-(naphthalen-1-yl)ethyl)amino)pyrrolidin-1-yl)phenyl)acetic acid]
[1]
  EC50: 42.5 nM

## COc1cc(N2CC[C@H](N[C@H](C)c3cccc4ccccc34)C2)ccc1CC(=O)O [Compound 7, 2-(2-methoxy-4-((S)-3-(((R)-1-(naphthalen-1-yl)ethyl)amino)pyrrolidin-1-yl)phenyl)acetic acid]
[1]
  EC50: 55.5 nM

## C[C@@H](N[C@H]1CCN(c2ccc(CC(=O)O)cc2)C1)c1cccc2ccccc12 [Evocalcet, reference compound]
[2]
  bioavailability: 100%
  AUC(0-inf): 25400 ± 7360 ng·h/mL
  Cmax: 2520 ± 212 ng/mL
  Tmax: 69 ± 96 min
  half-life: 290 ± 23.4 min
[1]
  EC50: 67.6 nM
[4]
  half-life: > 60 min

From EP4800004A1, “ARYLALKYLAMINE COMPOUND, AND PREPARATION METHOD THEREFOR AND USE THEREOF” (Renhe Yikang Group Co., Ltd., priority 2024, dated 2025)
